Test results from PubChem BioAssay (NCI).
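Where inhibition never reached the appropriate level, the endpoint shown equals the highest concentration tested. Otherwise, values were interpolated linearly from a five-concentration, 48-hour dose response in 96-well plates. The concentration for 50% growth inhibition is given as GI50. TGI denotes the concentration required for complete inhibition of growth.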

Assays:
Experiment in all cases: growth of human tumour cells (NCI), 48 h
[1] = test system: MDA-MB-435
[2] = test system: MALME-3M melanoma
[3] = test system: EKVX NSCLC
[4] = test system: UACC-257 melanoma
[5] = test system: SW-620 colon
[6] = test system: SK-MEL-5 melanoma
[7] = test system: OVCAR-4 ovarian
[8] = test system: NCI-H460 lung
[9] = test system: CCRF-CEM leukemia
[10] = test system: HT29 colon
[11] = test system: SNB-19 CNS
[12] = test system: NCI-H522 lung
[13] = test system: COLO 205 colon
[14] = test system: PC-3 prostate
[15] = test system: HL-60(TB) leukemia
[16] = test system: DU-145 prostate
[17] = test system: KM12 colon
[18] = test system: NCI-H23 lung
[19] = test system: RPMI-8226 leukemia
[20] = test system: SF-295 CNS
[21] = test system: SR leukemia
[22] = test system: SN12C renal
[23] = test system: 786-0 renal
[24] = test system: SK-OV-3 ovarian
[25] = test system: SK-MEL-28 melanoma
[26] = test system: NCI-H226 lung
[27] = test system: A549 NSCLC
[28] = test system: HOP-92 NSCLC
[29] = test system: SK-MEL-2 melanoma
[30] = test system: CAKI-1 renal
[31] = test system: M14 melanoma
[32] = test system: MOLT-4 leukemia
[33] = test system: U251 CNS
[34] = test system: TK-10 renal
[35] = test system: HCC-2998 colon
[36] = test system: OVCAR-8 ovarian
[37] = test system: SF-268 CNS
[38] = test system: UACC-62 melanoma
[39] = test system: RXF 393 renal
[40] = test system: HS 578T breast
[41] = test system: HCT-15 colon
[42] = test system: SNB-75 CNS
[43] = test system: A498 renal
[44] = test system: MCF7 breast
[45] = test system: UO-31 renal
[46] = test system: T-47D breast
[47] = test system: MDA-MB-231 breast
[48] = test system: ACHN renal
[49] = test system: SF-539 CNS
[50] = test system: K-562 leukemia
[51] = test system: HOP-62 NSCLC
[52] = test system: HCT-116 colon
[53] = test system: OVCAR-5 ovarian
[54] = test system: NCI/ADR-RES ovarian
[55] = test system: IGROV1 ovarian

## N#Cc1cccc(NC(=O)c2cc(-c3ccc(F)cc3F)ccc2O)c1
[1]
  GI50: 1.37 µM
  TGI: 6.32 µM
[2]
  GI50: 1.01 µM
  TGI: 4 µM
[3]
  GI50: 2.68 µM
  TGI: 9.32 µM
[4]
  GI50: 0.893 µM
  TGI: 5.32 µM
[5]
  GI50: 2.99 µM
  TGI: 17.1 µM
[6]
  GI50: 0.507 µM
  TGI: 1.94 µM
[7]
  GI50: 0.899 µM
  TGI: 14.2 µM
[8]
  GI50: 1.42 µM
  TGI: 13.3 µM
[9]
  GI50: 3.25 µM
  TGI: 19.3 µM
[10]
  GI50: 5.71 µM
  TGI: > 100 µM
[11]
  GI50: 2.37 µM
  TGI: 14.3 µM
[12]
  GI50: 0.642 µM
  TGI: 10.9 µM
[13]
  GI50: 11.5 µM
  TGI: 25.1 µM
[14]
  GI50: 2.89 µM
  TGI: 17.9 µM
[15]
  GI50: 1.8 µM
  TGI: 5.27 µM
[16]
  GI50: 2.63 µM
  TGI: > 100 µM
[17]
  GI50: 2.72 µM
  TGI: 8.24 µM
[18]
  GI50: 1.49 µM
  TGI: 6.23 µM
[19]
  GI50: 0.562 µM
  TGI: 3.17 µM
[20]
  GI50: 1.96 µM
  TGI: 4.44 µM
[21]
  GI50: 2.91 µM
  TGI: 23.2 µM
[22]
  GI50: 1.44 µM
  TGI: 6.46 µM
[23]
  GI50: 3.06 µM
  TGI: 10.7 µM
[24]
  GI50: 2.35 µM
  TGI: 8.88 µM
[25]
  GI50: 1.38 µM
[26]
  GI50: 1.86 µM
  TGI: 7.36 µM
[27]
  GI50: 3.52 µM
  TGI: > 100 µM
[28]
  GI50: 0.338 µM
  TGI: 1.93 µM
[29]
  GI50: 0.768 µM
  TGI: 3.85 µM
[30]
  GI50: 1.31 µM
  TGI: 4.74 µM
[31]
  GI50: 2.25 µM
  TGI: 8.89 µM
[32]
  GI50: 2.55 µM
  TGI: 8.6 µM
[33]
  GI50: 2.56 µM
  TGI: 25.5 µM
[34]
  GI50: 3.49 µM
  TGI: 15.7 µM
[35]
  GI50: 3.22 µM
  TGI: 12.4 µM
[36]
  GI50: 2.88 µM
  TGI: > 100 µM
[37]
  GI50: 2.38 µM
  TGI: 20.7 µM
[38]
  GI50: 0.522 µM
  TGI: 2.7 µM
[39]
  GI50: 2.25 µM
  TGI: 6.6 µM
[40]
  GI50: 2.02 µM
  TGI: 7.21 µM
[41]
  GI50: 1.9 µM
  TGI: 6.93 µM
[42]
  GI50: 1.29 µM
  TGI: 3.88 µM
[43]
  GI50: 0.374 µM
  TGI: 2.12 µM
[44]
  GI50: 1.87 µM
  TGI: 10.7 µM
[45]
  GI50: 1.82 µM
  TGI: 9.03 µM
[46]
  GI50: 0.496 µM
  TGI: 6.57 µM
[47]
  GI50: 2.12 µM
  TGI: 5.93 µM
[48]
  GI50: 2.65 µM
  TGI: 10.1 µM
[49]
  GI50: 2.54 µM
[50]
  GI50: 1.51 µM
  TGI: > 100 µM
[51]
  GI50: 2.39 µM
  TGI: 7.96 µM
[52]
  GI50: 1.89 µM
  TGI: 8.91 µM
[53]
  GI50: 3.39 µM
  TGI: 30.2 µM
[54]
  GI50: 2.11 µM
  TGI: 9.92 µM
[55]
  GI50: 2.6 µM
  TGI: > 100 µM
